{"source": "patent US8309534B2", "about": "“Compositions comprising a GPR109 ligand for treating disorders of the digestive tract and/or cancer” (Medical College of Georgia Research Institute, Inc., priority 2007, dated 2012)", "key": {"[1]": {"system": "GPR109A expression in human colon cancer cell lines", "assay": "GPR109A mRNA expression in colon cancer cell lines by semi-quantitative RT-PCR", "assay_type": "cell-based", "conditions": "2 μg/ml, 72 h", "method": "HPRT1 mRNA was used as an internal control. […] Steady-state levels of mRNAs for DNMT1, DNMT3a, DNMT3b, and HPRT1 were monitored in normal human colon tissues and in human colon cancer tissues by semi-quantitative RT-PCR. […] Three different colon cancer cell lines were treated with procainamide, a specific inhibitor of DNMT1, and the expression of GPR109A was monitored in cells treated with or without the inhibitor."}, "[2]": {"system": "LPS-induced NF-κB promoter activity in KM12L4 cells with ectopic expression of GPR109A", "assay": "LPS-induced NF-κB promoter reporter in KM12L4 cells transfected with human GPR109A cDNA", "assay_type": "cell-based", "conditions": "ligand 1 mM 8 h, LPS 100 ng/ml 4 h", "source_text": "(§1) The anti-inflammatory effect of butyrate was monitored in colonic cells by its ability to suppress LPS-induced activation of NF-κB promoter with luciferase as the reporter. The participation of SLC5A8 and GPR109A in mediating the effects of extracellular butyrate was differentiated first by using specific ligands. If SLC5A8 is involved in the process, the transporter-facilitated entry of butyrate followed by inhibition of histone deacetylases (HDACs) inside the cells would be responsible for the effects. If GPR109A is involved in the process, the activation of the receptor by extracellular butyrate would be responsible for the effects. […] In these experiments, cells were first transfected with the construct carrying the NF-κB-luciferase, pretreated with GPR109A ligands (1 mM) for 8 h and then exposed to LPS (100 ng/ml) for 4 h. Following the treatment, cell lysates were used to measure luciferase activity as a read-out for activation of NF-κB.\n(§2) The cells were transfected with either empty vector or human GPR109A cDNA. […] We cloned the human GPR109A cDNA by RT-PCR using mRNA prepared from human colon, and subcloned the RT-PCR product into pcDNA vector under the control of the cytomegalovirus promoter. The insert was sequenced to confirm its molecular identity. […] The activation of the receptor was monitored by measuring the activity of a K^+-channel."}, "[3]": {"system": "LPS-induced activation of NF-κB promoter in vector-transfected KM12L4 cells", "assay": "LPS-induced NF-κB promoter reporter in vector-transfected KM12L4 cells (no GPR109A)", "assay_type": "cell-based, human", "conditions": "ligand 1 mM 8 h, LPS 100 ng/ml 4 h", "source_text": "as §1, §2"}, "[4]": {"system": "bone marrow-derived dendritic cells", "assay": "Development of bone marrow-derived dendritic cells (FACS)", "assay_type": "cell-based", "conditions": "mouse bone marrow cells, ligand 1 mM, 4 days", "method": "In these experiments, mouse bone marrow cells were collected and cultured in the presence of various ligands (1 mM) for 4 days. Following this, FACS (fluorescence activated cell sorting) was used to identify the fraction of various immune cell types in the sample."}, "[5]": {"system": "LPS-induced NF-κB promoter activity in HCT116-DNMT1−/− cells", "conditions": "GPR109A expressed", "source_text": "as §1\n(§3) Additionally, two different isogenic cell lines of the human colon cancer cell line HCT116, one with normal expression of the DNA methyltransferase I(DNMT1) and the other with deletion of the gene coding for the enzyme (HCT116-DNMT1^−/−) were used."}, "[6]": {"system": "LPS-induced NF-κB promoter activity in HCT116 cells", "conditions": "HCT116, no expression of GPR109A", "source_text": "as §1, §3"}, "[7]": {"system": "vector-transfected KM12L4 cells", "conditions": "0.5 mM, 24 h"}, "[8]": {"system": "LPS-induced activation of NF-κB promoter in CCD841 cells", "conditions": "ligand 1 mM 8 h, then LPS 100 ng/ml 4 h, luciferase", "source_text": "as §1"}, "[9]": {"system": "Colon cancer cell line SW480", "assay": "Apoptosis of colon cancer cells with octanoate (propidium iodide FACS)", "assay_type": "cell-based", "conditions": "human colon cancer cell line (SW480); varying concentrations, 24 or 48 h", "method": "Colon cancer cell line SW480 was cultured in the presence of varying concentrations of octanoate for 24 or 48 h, and then cells were fixed in ethanol, stained with propidium iodide, and subjected to FACS analysis to determine the percent of cells undergoing apoptosis. Sub G0/1 cells were quantitated using Cell Quest program and values are expressed as mean+SEM."}, "[10]": {"system": "human breast cancer cell line", "assay": "Apoptosis of human breast cancer cell line with octanoate", "assay_type": "cell-based", "conditions": "human breast cancer cell line expressing GPR109B", "source_text": "The GPR109B receptor isoform is unique to humans. Its expression is not reduced in cancer. Its ligand specificity is different from that of GPR109A. One of the ligands which has relatively high affinity for GPR109B is the medium-chain fatty acid octanoate. This ligand was used to see if this receptor isoform can be used to kill tumor cells. […] Two cancer cell lines, a human colon cancer cell line and a human breast cancer cell line were studied. Both these cell lines express GPR109B because the expression of this receptor isoform is not affected in cancer. […] Thus, another embodiment provides a method for treating cancer by administering to a subject an effective amount of a ligand for GPR109B to promote apoptosis in tumor cells optionally in combination with a second therapeutic agent. A preferred ligand is octanoate or a derivative thereof."}}, "note": "Entries after “also recorded” stand apart in the source; their conditions may differ.", "data": [{"compound": "Nc1ncn([C@@H]2O[C@H](CO)[C@@H](O)[C@H]2O)c(=O)n1", "note": "[5-azacytidine]", "values": [{"measurement": "effect on GPR109A expression", "setting": "[1]", "value": "the expression of the gene is induced"}, {"measurement": "effect on GPR109A expression", "setting": "[1]; listed as 5′-azacytidine", "value": "re-activates the expression of the receptor"}]}, {"compound": "CC(C)n1nnc2cc(C(=O)O)ccc21", "note": "[IPBT, 1-isopropyl-benzotriazole-5-carboxylic acid]", "values": [{"measurement": "effect on LPS-induced NF-κB promoter activity", "setting": "[2]", "value": "did not have any effect"}, {"measurement": "effect on LPS-induced activation of NF-κB promoter", "setting": "[3]", "value": "did not have any effect"}]}, {"compound": "CC(=O)O", "note": "[acetate]", "values": [{"measurement": "effect on development of dendritic cells", "setting": "[4]", "value": "had no effect"}]}, {"compound": "CC1(c2ccccc2)OC(C(=O)O)=CC1=O", "note": "(stereo not drawn) [acifran]", "values": [{"measurement": "effect on LPS-induced NF-κB promoter activity", "setting": "[2]", "value": "marked suppression"}, {"measurement": "effect on LPS-induced NF-κB promoter activity", "setting": "[5]", "value": "suppressed LPS-induced promoter activity"}, {"measurement": "effect on LPS-induced NF-κB promoter activity", "setting": "[6]", "value": "none of these compounds had any significant effect"}, {"measurement": "effect on LPS-induced activation of NF-κB promoter", "setting": "[3]", "value": "did not have any effect"}]}, {"compound": "O=C(O)c1cccnc1", "note": "[nicotinate, nicotinic acid]", "values": [{"measurement": "change in expression of genes involved in apoptosis and cell cycle", "setting": "[7]", "value": "do not exhibit any change in the expression of various genes"}, {"measurement": "effect on LPS-induced activation of NF-κB promoter", "setting": "[8]", "value": "able to block LPS-induced activation of NF-κB promoter"}, {"measurement": "effect on development of dendritic cells", "setting": "[4]", "value": "had no effect"}]}, {"compound": "CCCCCCCC(=O)O", "note": "[octanoate]", "values": [{"measurement": "apoptosis", "setting": "[9]", "value": "induced apoptosis; also recorded: leads to apoptosis in a dose-dependent manner"}, {"measurement": "apoptosis", "setting": "[10]", "value": "leads to apoptosis in a dose-dependent manner"}]}, {"compound": "CCC(=O)O", "note": "[propionate]", "values": [{"measurement": "effect on development of dendritic cells", "setting": "[4]", "value": "able to block the development"}]}]}
